A short description of assay [1]: Compound was evaluated for inhibition of binding of [3H]glycine to specific binding at glycine receptor in rat cortical membrane at 100 uM. It counts as cell membranes.
For assay [2], the target named is Glutamate receptor ionotropic, AMPA (Rattus norvegicus, UniProt P19490+P19491+P19492+P19493). In words: Compound was evaluated for inhibition of binding of [3H]AMPA to specific binding at Ionotropic glutamate receptor AMPA in rat cortical membrane. The class given is cell membranes.
The target in assay [3] is Glutamate receptor ionotropic, kainate (Rattus norvegicus) (UniProt P22756+Q01812+P42260+P42264+Q63273). Kind of assay: Compound was evaluated for inhibition of binding of [3H]KA to specific binding at Ka receptor in rat cortical membrane at 100 uM. It counts as cell membranes.
The species entered for assay [4] is Mus musculus. In words: Ability to inhibit depolarizations induced by NMDA in mouse cortical wedge preparations. The class given is functional, organism-based.
Assay [5] is filed under the species Mus musculus. Kind of assay: Ability to inhibit depolarizations induced by AMPA in mouse cortical wedge preparations. It counts as functional, organism-based.
A short description of assay [6]: Compound was evaluated for inhibition of binding of [3H]glycine to specific binding at glycine receptor in rat cortical membrane. It counts as cell membranes.
Assay [7] addresses Glutamate receptor ionotropic, kainate. Kind of assay: Compound was evaluated for inhibition of binding of [3H]KA to specific binding at Ka receptor in rat cortical membrane. The class given is cell membranes.

pIC50, pKi: −log10 of the molar value.

This passage reports inhibition, Ki and IC50 results from ChEMBL document CHEMBL1133689, “7-Chloro-4,5-dihydro-8-(1,2,4-triazol-4-yl)-4-oxo-1,2,4-triazolo[1, 5-a]quinoxaline-2-carboxylates as novel highly selective AMPA receptor antagonists” (J Med Chem, 2000).

Regarding `CCOC(=O)c1nc2c(O)nc3cc(Cl)c(-n4cnnc4)cc3n2n1`, the inhibition – broadly, the change of the read-out against control, counted positive when it falls – in assay [1] turned out to be 15%; in assay [3], 42%. Besides, the pKi (as a rule, −log10 of the Ki, conventionally taken in molar units) in assay [2] is 6.15. In addition, the pIC50 – broadly, the IC50 on a negative log10 scale, so that one unit is a factor of ten – in the assay listed under Mus musculus [4] was 4.00; in the assay listed under Mus musculus [5], 4.82.
Take `CCOC(=O)c1nc2c(O)nc3cc(Cl)c(-n4ccnc4)cc3n2n1`: the inhibition in assay [1] is 39%; in assay [3], 24%. In assay [2], this molecule had a negative-log Ki (pKi) of 5.64. For the same molecule, the pIC50 in the assay listed under Mus musculus [4] was below 4.00; in the assay listed under Mus musculus [5] it was 4.66.
As for `NS(=O)(=O)c1cccc2c1c([N+](=O)[O-])cc1nc(O)c(O)nc12` [NBQX], in assay [1], the inhibition was determined as 3%. For the same molecule, in the assay listed under Mus musculus [5], the negative-log IC50 (pIC50) is 6.70.
As to `O=C(O)c1cc(O)c2c(Cl)cc(Cl)cc2n1`, in assay [6], the pKi was 7.05. In addition, in assay [3], the inhibition worked out at 8%. For the same molecule, the pIC50 is 5.33 in the assay listed under Mus musculus [4] and 4.28 in the assay listed under Mus musculus [5].
For `O=C(O)c1nc2c(O)nc3cc(Cl)c(-n4cnnc4)cc3n2n1` [TQX-173], the pKi is 4.47 in assay [6] and 6.85 in assay [2]. Also, the pIC50 in the assay filed under Mus musculus [4] was 4.34; in the assay listed under Mus musculus [5] it was 5.64; in assay [7] it was 4.94.
In turn, `O=C(O)c1nc2c(=O)[nH]c3cc(Cl)c(-n4ccnc4)cc3n2n1` gave a pKi in assay [2] of 6.01. The pIC50 in assay [7] is 4.77.
As to `O=C(O)c1nc2c(O)nc3cc(Cl)c(-n4ccnc4)cc3n2n1`, in assay [1], the inhibition stood at 45%.
Take `O=C(O)c1nc2c(O)nc3cc(Cl)c([N+](=O)[O-])cc3n2n1`: the pKi in assay [6] was 5.66. In assay [3], this molecule had an inhibition of 41%. The pIC50 in the assay filed under Mus musculus [4] and in the assay filed under Mus musculus [5] was 4.12 in each case.
